In the NIST ThermoML archive (doi:10.1021/je900703f):
Numbers after ± are expanded uncertainties.

Conditions: Liquid

FC(F)=C(F)C(F)(F)F [hexafluoropropene]
Conditions | vapor or sublimation pressure [kPa]
263.17 K | 224.5 ± 1.7
273.16 K | 324.4 ± 2.2
293.12 K | 641 ± 4.1
313.11 K | 1099.4 ± 7
333.11 K | 1788.2 ± 11
353.14 K | 2778.2 ± 17
